Measured values taken from patent publication US5126488A, “2β,19-methyleneamino bridged steroids as aromatase inhibitors” (Merrell Dow Pharmaceuticals Inc., priority 1990, dated 1992).

Molecular target: T1, aromatase (Homo sapiens, UniProt P11511)
T1 construct: 700 μl of aromatase preparation, usually 300-800 μg of microsomal protein per ml of assay buffer; from tissue; host or cells: microsomes
T1 sequence (P11511 1-503): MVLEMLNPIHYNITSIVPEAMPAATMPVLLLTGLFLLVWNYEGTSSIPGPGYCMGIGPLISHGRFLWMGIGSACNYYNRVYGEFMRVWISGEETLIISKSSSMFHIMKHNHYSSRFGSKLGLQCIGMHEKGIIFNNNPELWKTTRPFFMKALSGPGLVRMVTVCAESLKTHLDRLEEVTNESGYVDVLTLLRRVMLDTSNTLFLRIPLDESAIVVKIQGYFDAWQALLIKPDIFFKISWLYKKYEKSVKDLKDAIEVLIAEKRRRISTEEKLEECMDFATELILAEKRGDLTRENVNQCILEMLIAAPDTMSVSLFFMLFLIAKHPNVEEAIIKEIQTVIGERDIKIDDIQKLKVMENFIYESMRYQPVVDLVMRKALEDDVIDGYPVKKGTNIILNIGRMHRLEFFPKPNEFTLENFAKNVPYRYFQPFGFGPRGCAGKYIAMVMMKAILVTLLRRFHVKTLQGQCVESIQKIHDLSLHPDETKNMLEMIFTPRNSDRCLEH
Assay: time-dependent aromatase inhibition assay (preincubation, Kitz-Wilson analysis)
Type: biochemical
Settings: Kitz-Wilson plots
Protocol: In this assay, the inhibitor is preincubated with enzyme prior to assaying for activity in the presence of high substrate levels. A time-related decrease in enzyme activity can be indicative of a preferred mode of inhibition.
In the time-dependent assay, an amount of the enzyme inhibitor in 100 μl of the assay buffer described above which will provide assay concentrations which are usually between 1 nM and 10 μm are added to 35 ml centrifuge tubes containing 600 μl of the NADPH generating system. The preincubation is started by the addition of 700 μl of aromatase preparation, usually 300-800 μg of microsomal protein per ml of assay buffer. These preparations are mixed using a vortex mixer and incubated for 0, 5, 10 or 20 minutes at 25° C. […] The amount of radioactivity in the aqueous fraction is determined by scintillation procedures. The enzymatic activity for each concentration of inhibitor at each time period of preincubation is calculated as a percent of the "0" minute vehicle control arbitrarily set at 100%. Therefore, the present enzyme inhibition is expressed as a percentage: (100 percent minus percent enzyme activity with inhibitor present).
Enzyme kinetic analysis utilized Kitz-Wilson plots for time-dependent assays. […] The pseudo first-order rate constant for enzyme inactivation (kcat) and the half-time of inactivation (.tau.50) of infinite inhibitor concentrations were determined. […]

## C[C@]12CC[C@H]3[C@@H](CCC4=CC(=O)[C@H]5CNC[C@]43C5)[C@@H]1CCC2=O [2β,19-(methyleneamino)androst-4-ene-3,17-dione]
At infinite inhibitor concentrations
  .tau.50 (half-time of inactivation): 2.66 min
Inhibitor concentration giving half-maximal rate of enzyme inactivation, microsomal aromatase preparation, preincubation 0-20 min at 25° C., read-out: Ki (apparent Ki of inactivation)
  KI (inactivation): 259 nM
